Source: patent US8883213B2, “Ion exchange resin treated to control swelling” (Coating Place, Inc., priority 2005, dated 2014)
Where a name gives a salt, the structure may show the parent alone.

Columns and labels:
[1] = Release of both drugs from coated layer loaded compound B-phenylephrine HCl-IRP-69 drug-resin complex (Table VII); assay type: physicochemical; details: from coated layer loaded compound B-phenylephrine HCl-IRP-69 complex
Method: The present invention also provides compositions and methods of releasing two or more pharmaceutical compositions. For example, a phenylephrine HCl and IRP-69 drug-resin complex is prepared using any of the methods disclosed herein or as disclosed in the prior art. The phenylephrine HCl and IRP-69 drug-resin complex is directly loaded with a second drug (e.g., compound B) by spray applying a solution containing compound B to the phenylephrine HCl-IRP-69 drug-resin complex. This layer loaded complex (compound B-phenylephrine HCl-IRP-69 drug-resin complex) is then coated as previously described.

[2] = Release profile of phenylephrine hydrochloride from drug-resin complex with a 25% coating (Table V); assay type: physicochemical

Released ([1]; 0.5 hour): 48% | Released ([1]; 1.0 hour): 55% | Released ([1]; 1.5 hour): 76% | Released ([1]; 2.0 hour): 81% | Released ([1]; 4.0 hour): 92% | % Released ([2]; 0.5 hr): 25.5% | % Released ([2]; 1.0 hr): 30.5% | % Released ([2]; 3.0 hr): 61.0% | % Released ([2]; 6.0 hr): 93.0% | % Released ([2]; 12.0 hr): 97.0%
Structure (SMILES): CNC[C@H](O)c1cccc(O)c1 [Phenylephrine Hydrochloride]
